Experimental data taken from patent US10555522B2, “Long term methods of improving disease tolerance in plants” (priority 2016, dated 2020).

How the values were obtained:
[1] = test system: Beet Curly Top Virus (BCTV); assay: Evaluation of Beet Curly Top Virus on tomatoes (field trial, seedlings treated before transplantation); type: in vivo; details: tomato var Heinz 8504; seedlings sprayed with 4 gm ai/ha two days before transplant; rated approximately 8 weeks later; P = 0.065
Procedure: In the instant example, symptoms of infection with Beet Curly Top Virus (BCTV) on tomatoes were evaluated. Plants were either treated with a composition comprising 1-MCP or left untreated.
Tomato seedlings (var Heinz 8504) with 4 leaves (approximately 4 inches tall) in seedling trays were either i) sprayed with a treatment of 1-MCP (4 gm ai/ha) or ii) left untreated. Contacting the plants was achieved using a pressurized backpack spraying system containing 1-MCP and water. Two days later, the tomato seedlings were transplanted into the open field near Five Points, Calif. following normal commercial tomato production practices.
Throughout the growing season, normal field production practices were performed, including fertilization, watering, and pest control (e.g., insecticide, fungicide, and herbicide) applications uniformly to the entire trial area. Approximately eight (8) weeks later, when the tomatoes had grown to approximately 2 feet tall, an infestation of Beet Curly Top Virus (BCTV) was noted. Observations were taken on percentage of plants infected with BCTV in treated and untreated plots.

[2] = test system: Tomato Yellow Leaf Curl Virus (TYLCV); assay: Evaluation of Tomato Yellow Leaf Curl Virus on tomatoes (field trial); type: in vivo, Tomato Yellow Leaf Curl Virus (Begomovirus Geminiviridae); details: tomato var Florida 47; seedlings treated with 50 ppm ai by watering can three days before transplant; rated approximately 9 weeks later; P = 0.081
Procedure: In the instant example, symptoms of infection with Tomato Yellow Leaf Curl Virus (TYLCV) on tomatoes were evaluated. Plants were either treated with a composition comprising 1-MCP or left untreated.
Tomato seedlings (var Florida 47) with approximately 4 leaves (approximately 4 inches tall) in seedling trays were either i) sprayed with 1-MCP (50 ppm ai) or ii) left untreated. Contacting the plants was achieved using a watering can containing 1-MCP and water. Three days later, the seedlings were transplanted into the open field near Myakka City, Fla. following normal commercial tomato production practices.
Throughout the growing season, normal field production practices were performed, including fertilization, watering, and pest control (e.g., insecticide, fungicide, and herbicide) applications uniformly to the entire trial area. Approximately 9 weeks later, when the tomatoes had grown to approximately 3 feet tall, an infestation of Tomato Yellow Leaf Curl Virus was observed. In each plot of plants that were treated with 1-MCP, and the corresponding plot of plants that were untreated, counts were made of the number of plants showing symptoms of infection by TYLCV out of the total of 54 plants per plot.

[3] = test system: Target Spot (Corynespora cassiicola); assay: Evaluation of Target Spot infection on tomatoes (field trial); type: in vivo; details: tomato var HM 1823; seedlings treated with 50 ppm ai by watering can three days before transplant; rated approximately 9 weeks later; P = 0.003
Procedure: In the instant example, symptoms of Target Spot […] infection (Corynespora cassiicola) on tomatoes were evaluated. Plants were either treated with a composition comprising 1-MCP or left untreated.
Tomato seedlings (var HM 1823) with approximately 4 leaves (approximately 4 inches tall) in seedling trays were either i) sprayed with 1-MCP (50 ppm ai) or ii) left untreated. Contacting the plants was achieved using a watering can containing 1-MCP and water. Three days later, the seedlings were transplanted into the open field near Myakka City, Fla. following normal commercial tomato production practices.
Throughout the growing season, normal field production practices were performed, including fertilization, watering, and pest control (e.g., insecticide, fungicide, and herbicide) applications uniformly to the entire trial area. Approximately 9 weeks later, when the tomatoes had grown to approximately 3 feet tall, an infestation of Target Spot was observed. In each plot of plants that were treated with 1-MCP, and the corresponding plot of plants that were untreated, counts were made of the number of plants showing symptoms of infection by Target Spot out of the total of 54 plants per plot.

[4] = test system: Bacterial Spot (Xanthomonas euvesicatoria and Xanthomonas perforans, Xanthomonas vesicatoria, and Xanthomonas gardneri); assay: Evaluation of Bacterial Spot on tomatoes (field trial); type: in vivo; details: tomato var Charger; seedlings sprayed with 1-40 g ai/ha two days before transplant; rated approximately 3 weeks later; p = 0.04
Procedure: In the instant example, symptoms of Bacterial Spot bacterial infection (Xanthomonas euvesicatoria and Xanthomonas perforans=[Xanthomonas axonopodis (syn. campestris) pv. vesicatoria], Xanthomonas vesicatoria, and Xanthomonas gardneri) on tomatoes were evaluated. Plants were either treated with a composition comprising 1-MCP or left untreated.
Tomato Seedlings (var Charger) with approximately 4 leaves (approximately 4-5 inches tall) in seedling trays were either i) sprayed with 1-MCP (1-40 g ai/ha) or ii) left untreated. Contacting the plants was achieved using pressurized backpack sprayer. Two days later, the seedlings were transplanted into the open field near Thonotosassa, Fla. following normal commercial tomato production practices.
Throughout the growing season, normal field production practices were performed, including fertilization, watering, and pest control (e.g., insecticide, fungicide, and herbicide) applications uniformly to the entire trial area. Approximately 3 weeks later, when the tomatoes had grown to approximately 1½ feet tall an infestation of Bacterial Spot was observed. In each plot of plants that were treated with 1-MCP, and the corresponding plot of plants that were untreated, disease severity assessments were made.

[5] = test system: Early Blight (Alternaria tomatophila); assay: Evaluation of Early Blight on tomatoes (field trial); type: in vivo
Procedure: In the instant example, symptoms of fungal infection with Early Blight (Alternaria tomatophila) on tomatoes were evaluated. Plants were either treated with a composition comprising 1-MCP or left untreated.
Tomato seedlings (var Charger) with approximately 4 leaves (approximately 4-5 inches tall) in seedling trays were either i) sprayed with 1-MCP (1-10 g ai/ha) or ii) left untreated. Contacting the plants was achieved using pressurized backpack sprayer. Two days later, the seedlings were transplanted into the open field near Thonotosassa, Fla. following normal commercial tomato production practices.
Throughout the growing season, normal field production practices were performed, including fertilization, watering, and pest control (e.g., insecticide, fungicide, and herbicide) applications uniformly to the entire trial area. Beginning approximately 3 weeks later, and continuing approximately 7 weeks later and approximately 11 weeks later, the percent disease severity ratings were made in each plot of plants that were treated with 1-MCP and the corresponding plot of plants that were untreated.

[6] = test system: Root Rot (Pythium sp.); assay: Evaluation of Root Rot on peppers (field trial); type: in vivo
Procedure: In the instant example, symptoms of fungal infection with Root Rot (Pythium sp.) on peppers were evaluated. Plants were either treated with a composition comprising 1-MCP or left untreated.
Pepper seedlings with approximately 3 leaves (approximately 4-5 inches tall) in seedling trays were either i) sprayed with 1-MCP (1-10 g ai/ha) or ii) left untreated. Contacting the plants was achieved using a watering can containing a 50 ppm solution of 1-MCP. Three days later, the seedlings were transplanted into the open field near Clinton, N.C. following normal commercial pepper production practices.
Throughout the growing season, normal field production practices were performed, including fertilization, watering, and pest control (e.g., insecticide, fungicide, and herbicide) applications uniformly to the entire trial area.

[7] = test system: Downy Mildew (Pseudoperonospora cubensis); assay: Evaluation of Downy Mildew on cucumbers (field trial); type: in vivo
Procedure: In the instant example, symptoms of fungal infection with Downy Mildew (Pseudoperonospora cubensis) on cucumbers were evaluated. Plants were either treated with a composition comprising 1-MCP or left untreated.
Cucumber seedlings with approximately 3 leaves (approximately 3 inches tall) in seedling trays were either i) sprayed with 1-MCP (40 g ai/ha) or ii) left untreated. Contacting the plants was achieved using pressurized backpack sprayer. Two days later, the seedlings were transplanted into the open field near Futian Village, Wangsi Township, Dayi County, Sichuan, China, following normal commercial production practices.
Throughout the growing season, normal field production practices were performed, including fertilization, watering, and pest control (e.g., insecticide, fungicide, and herbicide) applications uniformly to the entire trial area. Approximately 5-6 weeks later, the percent disease severity ratings were made in each plot of plants that were treated with 1-MCP and the corresponding plot of plants that were untreated.

CC1=CC1 [1-MCP, 1-methylcyclopropene]
Percentage of BCTV Infested Plants [1]: 4% | Mean (plants showing symptoms of infection by TYLCV out of 54 plants per plot) [2]: 11% | Percentage of Infected Plants (Target Spot) [3]: 19% | Bacterial Spot disease severity assessment [4]: 4% | reduction of average percent disease severity ratings for Early Blight versus untreated ([5]; across the three rating dates (approximately 3, 7, 11 weeks)): approximately 30% | average percent disease severity rating for Early Blight ([5]; tomato var Charger, seedlings sprayed with 1-10 g ai/ha two days before transplant, average across approximately 3, 7 and 11 weeks later, p = 0.09): 27.6% | mortality and stunting of plants caused by Pythium ([6]; pepper seedlings treated with 1-10 g ai/ha (watering can, 50 ppm solution) three days before transplant, versus untreated): clearly reduced the mortality and stunting of plants | plant appearance and Pythium pressure compared to untreated controls ([6]; pepper, two weeks after transplantation): slightly larger, darker green, and not as affected by Pythium pressure | percent disease (Downy Mildew) severity rating ([7]; cucumber seedlings sprayed with 40 g ai/ha two days before transplant, rated approximately 5-6 weeks later, p = 0.08): 18% | reduction of percent disease (Downy Mildew) severity ratings versus untreated ([7]; cucumber, approximately 5-6 weeks later): approximately 47%
